From article PMC7215935, “GM1 Oligosaccharide Crosses the Human Blood–Brain Barrier In Vitro by a Paracellular Route” (International Journal of Molecular Sciences, 2020) come the findings set out here.

Structures are written as SMILES.

The subject of one series is MRPs. The series can be described thus: ABC transporter competition assay (Caco-2 pump out), CMFDA efflux. Particulars: Caco-2 cells, 10, 50 and 100 μM, vs control.
Another series concerns hBLECs. In words: Toxicity on hBLECs / monolayer integrity by LY permeability in combination with test substance. It is filed as cell-based, human. Particulars: 10, 50, 100 and 300 μM with 50 μM LY, 60 min and over time (20, 40, 60 min). How it is done:
Prior to the experiments, in order to verify the hBLECs’ monolayer integrity and stability, the permeability parameters were verified as previously reported. Briefly, 1.5 mL Ringer–Hepes solution (RH) (150 mM NaCl, 5.2 mM KCl, 2.2 mM CaCl2, 0.2 mM MgCl26H2O, 6 mM NaHCO3, 5 mM HEPES, pH: 7.4) was added to empty wells of a 12-well plate. Filter insert containing confluent monolayers of hBLECs or not (control) were subsequently placed in the 12-well plate, filled with 0.5 mL RH buffer containing the fluorescent integrity marker LY (50 μM), and then placed on an orbital shaker (150 rpm, Heidolph Titramax 100) at 37 °C in a humidify atmosphere of 95% air/5% CO2. Every 20 min for 1 h, filter inserts were withdrawn from the receiver compartment and placed in the next one. To verify the quantity of LY, at the end of the experiments, aliquots from the donor solution were taken at the end of the experiments and the fluorescence was quantified using a quantification curve of LY as referee. At least three inserts with cells and three without cells were tested in each permeability measurement. The fluorescence was measured using a luminescence spectrometer (LS 50B, Perkin Elmer), using the following excitation/emission wavelength (nm) settings: 432/538. Pe parameters were calculated according to the formulas shown in the Supplementary Information (Equations (7)–(10)). In parallel, as positive control for breakdown of hBLECs, D-mannitol, was used at a concentration of 1.4 M. At this concentration, mannitol induces an osmotic shock, and thus an increase in paracellular permeability.
To evaluate the toxicity of GM1 and OligoGM1, the LY endothelial permeability (Pe) and apparent permeability (Papp) were considered for evaluation of hBLEC monolayer integrity after administration of compounds.
To examine the LY permeability, 1.5 mL of RH buffer was added to empty wells of a 12-well plate, then hBLEC filters were placed in the 12-well plate and filled with 0.5 mL RH buffer containing 50 μΜ LY plus OligoGM1 or GM1 at an appropriate test concentration (from 5 to 300 μΜ). The hBLEC inserts were moved every 20 min to a new RH-filled well up to 60 min. At the end of the incubation period, solutions were collected from apical and basolateral compartments, LY was quantified, and Papp was calculated as reported in the Supplementary Information (Equation (1)) and previously mentioned.

Description for MRPs: Briefly, Caco-2 cells in 96-well plates were washed once with RH buffer and incubated for 120 min with 10 µM R123 or for 15 min with 0.5 µM CMFDA. R123 and CMFD are substrates for the major efflux pumps expressed by BBB and intestine cells, i.e., P-gp/BCRP and MRPs, respectively. After the incubation period, Caco-2 cells were washed twice with RH buffer with or without test compounds (OligoGM1 at 10, 50, and 100 µM). The rate out (Kout) of Caco-2 cells for fluorescent dyes was monitored by fluorescence measurement (λex = 501 nm and λem = 538 nm for R123; λex = 485 nm and λem = 538 nm for CMFDA) using a microplate fluorescent reader (BioTek, H1, Vermont, Winooski). The amount of dye expelled from the cells was measured at 37 °C and every 5 min for one hour for R123 and every 2 min for 30 min for CMFDA. The rate out of the dye from cells was calculated as the slope of the curve of the cumulative amount of dye against the time (Kout = ∆pmol⁄∆t) and compared with the value in the presence of test compounds.

For `CC(=O)NC1C(O)CC(OC2C(O)C(OC3C(CO)OC(O)C(O)C3O)OC(CO)C2OC2OC(CO)C(O)C(OC3OC(CO)C(O)C(O)C3O)C2NC(C)=O)(C(=O)O)OC1C(O)C(O)CO` (stereo not drawn) [OligoGM1, β-Gal-(1-3)-β-GalNAc-(1-4)-[α-Neu5Ac-(2-3)]-β-Gal-(1-4)-β-Glc], in the series with MRPs, the “effect on efflux (Kout) of CMFDA” value is reported as “did not identify any difference”. In addition, the “effect on LY Pe and Papp (toxicity to hBLECs)” value in the series on hBLECs is “no variations of LY Pe and Papp were observed”.
